Data as given in patent publication US20250243427A1, “PRECURSORS OF PHENOLIC FRAGRANT COMPOUNDS” (GIVAUDAN SA, priority 2021, published 2025).
“Also recorded” adds a separate entry of the source.

Experiments:
[1] = Washtest and sensory evaluation of fabric washed with liquid detergent; conditions: for odour intensity, wet: Table 2 (position of double bond); for odour intensity, wet / odor intensity, wet: wet fabric, scale 0 (odorless) to 5 (extremely strong); for odour intensity, 1 day / odour intensity, 4 days: Table 2; for odour intensity, 1 day / odour intensity, 4 days / odor intensity, 1 day / odor intensity, 4 days: scale 0 to 5
Description: The wet and line-dried fabric (1 and 4 days) was assessed by a panel of 4-6 experts with regard to odor intensity and quality. The odor intensity was recorded on an intensity scale of 0 (odorless) to 5 (extremely strong).
The odour intensity was recorded on an intensity scale of 0 (odorless) to 5 (extremely strong).
Liquid detergent samples were prepared and used in washtests and subsequent sensory evaluation of the washed and dried fabric as described in Example 45a and c. The odor intensity was recorded on an intensity scale of 0 (odorless) to 5 (extremely strong).

[2] = Malodour reduction on washed fabric, trained sensory panel; conditions: 4 day dry cloth washed with unit dose containing 2% of a 10% solution in trietylcitrate, + Male Sweat Malodour, 0-100 line scale; for Perceived Fragrance Intensity: control set at 0; for Perceived Malodour Intensity: malodour control set at 40
Description: Fabrics (18 cm×14 cm cotton jersey) were stripped before use. They were then washed in European washing machines (40° C.—1,000 spin/min) with one unit dose (65 g) used per wash load. The unit dose contained 2% of a 10% solution of the compound of formula 1 in trietylcitrate. • a) Compound of example 33 • b) Compound of example 34 • c) Compound of example 1
The total wash load was 1.6 kg made up of test cloths and hand towels (100% cotton) as ballast. The cloth was line dried and left overnight in a perfume free room at 25° C., left to hang for 3 days and then wrapped in foil the day prior to the test (day 3). 30 minutes before the assessment, 50 μL of the pure Male Sweat malodour was placed on top of a cotton pad and introduced into a 500 ml powder jar. One cotton jersey square was then placed over the top of the powder jar and secured with a rubber band. Every sample tested was coded with a random code number.
The malodour and fragrance perceived intensities were assessed by the trained sensory panel using a 0-100 line scale. All malodour and fragrance perceived intensities were scaled against the malodour control sample. The malodour perceived intensity was set at 40 for Male Sweat malodour and the fragrance perceived intensity was set at 0.
The order of samples assessed by the panelists was pre-determined using a balanced randomisation. The samples were assessed in a sequential monadic way. The products were assessed twice by 14 panelists, thus giving 28 assessments per sample.
Before analysis, the data was checked for outliers and extreme violations to normality.
Reliability of the data was checked and data of panelists with poor discrimination, consensus or repeatability may have been removed from the analysis. The data was analysed using analysis of variance (ANOVA). A 5% significance level (95% confidence level) was used. Separate ANOVAs were carried out for malodour and fragrance intensity. The ANOVA have product, panelist, and replicate as factors. Pairwise comparisons of the products were done using the Benjamini-Hochberg correction for multiple testing. The estimated product means are reported.

[3] = Biodegradability, manometric respirometry test (OECD 301F); set-up: key to result (biodegradable class; cell wraps to 'biodegradable'): A compound is readily biodegradable, if the pass level is reached within 10 days within the 28-day period of the test; If the pass level is obtained after 28-day period of the test, the compound can be classified as inherently biodegradable; conditions: for result (biodegradable class; cell wraps to 'biodegradable'): 28-day test, 10-day window; for Biodegradation in %: pass level 60% oxygen consumption of theory
From the text: The results of the biodegradability assessment by the manometric respirometry test (OECD guideline for the testing of materials No. 301F, Paris 1992) are summarized in Table 5.
A compound can be classified biodegradable, if it reaches the pass level of 60% oxygen consumption of theory required for complete mineralization.
A compound is readily biodegradable, if the pass level is reached within 10 days within the 28-day period of the test. The 10-day window begins when the degree of biodegradation has reached 10%. If the pass level is obtained after 28-day period of the test, the compound can be classified as inherently biodegradable.

[4] = Odor description on paper blotter; conditions: 1% solution in EtOH on paper blotter, 24 h
[5] = Color stability in liquid detergent, visual inspection; assay type: physicochemical; conditions: 0.2% by weight in unperfumed liquid detergent base, stirred 24 h at room temperature; compared to unperfumed base sample (C)
From the text: The above prepared samples were visually inspected in comparison to an unperfumed base sample (sample C).

[6] = liquid detergent washtest, dry fabric 1 day
[7] = liquid detergent washtest, dry fabric 4 days
[8] = Table 3, liquid detergent washtest
[9] = Table 3, liquid detergent washtest, dry fabric 1 day
[10] = Table 3, liquid detergent washtest, dry fabric 4 days

For `CC=CCCOc1ccc(C=O)cc1OCC` [Example 33, 3-ethoxy-4-(pent-3-en-1-yloxy)benzaldehyde], which “odour intensity, wet” value ([1]; liquid detergent washtest) is on record?
Its value is 1.1.

And the “odour intensity, 1 day” value [1, 6]?
The value was 3.2.

What about the “odour intensity, 4 days” value [1, 7] of the same compound?
The value was 3.8.

What about the “Perceived Fragrance Intensity” value [2] of the same compound?
Its value is 22.3.

And the “Perceived Malodour Intensity” value [2]?
Its value is 26.5.

What about the “result (biodegradable class; cell wraps to 'biodegradable')” value (“result” below) [3] of the same compound?
The value was “inherently”.

What about the Biodegradation in % [3] of the same compound?
The Biodegradation in % was 66%.

What about the Odor description [4] of the same compound?
Its Odor description is “mild, powdery, vanilla, peppery”.

For `CC/C=C\CCOc1ccc(CCC(C)=O)cc1` [Example 6, (Z)-4-(4-(hex-3-en-1-yloxy)phenyl)butan-2-one], which “odor on dry fabric” value [1, 8] is on record?
Its value is “raspberry”.

And the “odor intensity, 1 day” value [1, 9]?
The value was 2.8.

And the “odor intensity, 4 days” value [1, 10]?
Its value is 3.6.

What about the “odor intensity, wet” value [1, 8] of the same compound?
The value was 3.0.

And the “result” value [3]?
Its value is “readily”.

What about the Biodegradation in % [3] of the same compound?
The Biodegradation in % was 82%.

And the Odor description [4]?
The Odor description was “raspberry”.

With `CCC/C=C/COc1ccc(C=O)cc1OCC` [Example 54, (E)-3-ethoxy-4-(hex-2-en-1-yloxy)benzaldehyde, reference compound] as the compound, how does the “odour intensity, wet” value ([1]; liquid detergent washtest) read?
The value was 1.2.

What about the “odour intensity, 1 day” value [1, 6] of the same compound?
Its value is 1.8.

And the “odour intensity, 4 days” value [1, 7]?
Its value is 1.4.

With `CC(=O)CCc1ccc(OCCC=C(C)C)cc1` [Example 18, 4-(4-((4-methylpent-3-en-1-yl)oxy)phenyl)butan-2-one] as the compound, how does the “result” value [3] read?
The value was “readily”.

And the Biodegradation in % [3]?
Its Biodegradation in % is 91%.

And the Odor description [4]?
Its Odor description is “sweet fruity (raspberry ketone)”.

Which “result” value [3] does the source give for `CC/C=C\CCOc1ccc(C=O)cc1OC` [Example 8, (Z)-4-(hex-3-en-1-yloxy)-3-methoxybenzaldehyde] here?
The value was “readily”.

What about the Biodegradation in % [3] of the same compound?
The Biodegradation in % was 92%.

What about the Odor description [4] of the same compound?
Its Odor description is “powdery (vanilla) slightly green”.

For `C=CCCCOc1ccc(C=O)cc1OCC` [Example 53, 3-ethoxy-4-(pent-4-en-1-yloxy)benzaldehyde, reference compound], which “odour intensity, wet” value ([1]; liquid detergent washtest) is on record?
The value was 1.5.

And the “odour intensity, 1 day” value [1, 6]?
The value was 1.3.

And the “odour intensity, 4 days” value [1, 7]?
Its value is 1.2.

Which results are given for `CC/C=C\CCOc1ccc(C=O)cc1OCC` [Example 1, (Z)-3-ethoxy-4-(hex-3-en-1-yloxy)benzaldehyde]?
odor released from washed T-shirts ([1]; 0.2% in liquid detergent, 40° C. machine wash, after 1 and 4 days): strong vanilla, sweet, powdery and creamy fragrance; odor intensity, 1 day ([1]; Table 1, 0.2% in liquid detergent, 40° C. machine wash, line-dried fabric 1 day): 3; odor intensity, 4 days ([1]; Table 1, 0.2% in liquid detergent, 40° C. machine wash, line-dried fabric 4 days): 3.7; odor intensity, wet ([1]; Table 1, 0.2% in liquid detergent, 40° C. machine wash): 1.3; odour intensity, wet ([1]; liquid detergent washtest): 3.2; odour intensity, 1 day [1, 6]: 3.2; odour intensity, 4 days [1, 7]: 3.6; Perceived Fragrance Intensity [2]: 18.3; Perceived Malodour Intensity [2]: 29.5; result (biodegradable class; cell wraps to 'biodegradable') [3]: inherently; Biodegradation in % [3]: 61%; Odor description [4]: powdery (vanillin) creamy; Color of liquid detergent sample (visual inspection) [5]: optically identical to the unperfumed base

For `C=CCc1ccc(OCC/C=C\CC)c(OC)c1` [Example 10, (Z)-4-allyl-1-(hex-3-en-1-yloxy)-2-methoxybenzene], which “odor on dry fabric” value [1, 8] is on record?
The value was “spicy, clove,; also recorded: gingerbread”.

And the “odor intensity, 1 day” value [1, 9]?
Its value is 2.4.

What about the “odor intensity, 4 days” value [1, 10] of the same compound?
The value was 2.5.

What about the “odor intensity, wet” value [1, 8] of the same compound?
Its value is 1.6.

What about the Odor description [4] of the same compound?
The Odor description was “slightly spicy”.

For `C/C=C/c1ccc(OCC/C=C\CC)c(OC)c1` [Example 11, 1-(((Z)-hex-3-en-1-yl)oxy)-2-methoxy-4-((E)-prop-1-en-1-yl)benzene], which “odor on dry fabric” value [1, 8] is on record?
The value was “spicy, vanilla”.

What about the “odor intensity, 1 day” value [1, 9] of the same compound?
Its value is 1.9.

And the “odor intensity, 4 days” value [1, 10]?
Its value is 3.0.

What about the “odor intensity, wet” value [1, 8] of the same compound?
The value was 2.0.

What about the Odor description [4] of the same compound?
Its Odor description is “slightly spicy woody”.

For `CCCC/C=C\CCOc1ccc(C=O)cc1OCC` [Example 17, (Z)-3-ethoxy-4-(oct-3-en-1-yloxy)benzaldehyde], which Odor description [4] is on record?
Its Odor description is “vanilla (powdery, spicy, creamy)”.

Which results are given for `CCOc1cc(C=O)ccc1OC1CC=CC1` [Example 20, 4-(cyclopent-3-en-1-yloxy)-3-ethoxybenzaldehyde]?
odor on dry fabric [1, 8]: vanilla, powdery; odor intensity, 1 day [1, 9]: 3.0; odor intensity, 4 days [1, 10]: 3.7; result (biodegradable class; cell wraps to 'biodegradable') [3]: inherently; Biodegradation in % [3]: 74%; Odor description [4]: vanilla (powdery, spicy, creamy)

Which Odor description [4] does the source give for “(Z)-2-ethoxy-1-(hex-3-en-1-yloxy)-4-methylbenzene and (Z)-1-ethoxy-2-(hex-3-en-1-yloxy)-4-methylbenzene [Example 35]” here?
The Odor description was “spicy, eugenol, clove, phenolic, vanilla, medicinal”.

For `C=C(C)CCOc1ccc(CCC(C)=O)cc1` [Example 16, 4-(4-((3-methylbut-3-en-1-yl)oxy)phenyl)butan-2-one], which Odor description [4] is on record?
Its Odor description is “fruity (raspberry) sweet”.

For `C=CCC(C=CC)Oc1ccc(CCC(C)=O)cc1` (stereo not shown) [Example 26, 4-(4-(hepta-1,5-dien-4-yloxy)phenyl)butan-2-one], which Odor description [4] is on record?
Its Odor description is “sweet (icing sugar cristal) raspberry”.

With `CC/C=C\CCOc1cc(C)c(C(=O)OC)c(O)c1C` [Example 9, methyl (Z)-4-(hex-3-en-1-yloxy)-2-hydroxy-3,6-dimethylbenzoate] as the compound, how does the “odor on dry fabric” value [1, 8] read?
Its value is “oakmoss”.

And the “odor intensity, 1 day” value [1, 9]?
Its value is 1.7.

And the “odor intensity, 4 days” value [1, 10]?
Its value is 3.3.

And the “odor intensity, wet” value [1, 8]?
The value was 1.0.

And the Odor description [4]?
Its Odor description is “powdery mossy (Evernyl)”.

For `CCOc1cc(C=O)ccc1OCCC=C(C)C` [Example 34, 3-ethoxy-4-((4-methylpent-3-en-1-yl)oxy)benzaldehyde], which “odor on dry fabric” value [1, 8] is on record?
The value was “vanilla”.

And the “odor intensity, 1 day” value [1, 9]?
The value was 3.3.

And the “odor intensity, 4 days” value [1, 10]?
Its value is 3.4.

What about the “odor intensity, wet” value [1, 8] of the same compound?
Its value is 1.5.

What about the “Perceived Fragrance Intensity” value [2] of the same compound?
Its value is 31.1.

What about the “Perceived Malodour Intensity” value [2] of the same compound?
Its value is 20.6.

And the “result” value [3]?
The value was “inherently”.

And the Biodegradation in % [3]?
Its Biodegradation in % is 69%.

What about the Odor description [4] of the same compound?
The Odor description was “powdery, vanilla, chocolate”.

Which Odor description [4] does the source give for `C=CCCOc1ccc(C=O)cc1OCC` [Example 12, 4-(but-3-en-1-yloxy)-3-ethoxybenzaldehyde] here?
The Odor description was “powdery (vanilla, creamy, dough)”.

Which Odor description [4] does the source give for `CCOc1cc(C=O)ccc1OCCC=CCC(C)C` [Example 31, 3-ethoxy-4-((6-methylhept-3-en-1-yl)oxy)benzaldehyde] here?
The Odor description was “powdery, vanilla, green, hazelnut, chocolate”.

For `C=CCC(C)(C)Oc1ccc(C=O)cc1OCC` [Example 28, 3-ethoxy-4-((2-methylpent-4-en-2-yl)oxy)benzaldehyde], which Odor description [4] is on record?
Its Odor description is “powdery (vanilla)”.

With `C=CCC(CCC)Oc1ccc(C=O)cc1OCC` (stereo not shown) [Example 19, 3-ethoxy-4-(hept-1-en-4-yloxy)benzaldehyde] as the compound, how does the Odor description [4] read?
Its Odor description is “powdery (dry, vanilla) fruity (metallic)”.

Which “Color of liquid detergent sample (visual inspection)” value [5] does the source give for `CCOc1cc(C=O)ccc1O` [Ethylvanillin (A), 3-ethoxy-4-hydroxybenzaldehyde, reference compound] here?
The value was “strong brown-purple coloration”.
